In data set [1] the test system is EAE induced using PLP 139-151. Description: In vivo efficacy study, EAE animal model. Details: species or system SJL/J (H-2) mice. Here is the method: In vivo efficacy of K-PLP was assessed using the EAE animal model induced in female 4-6-week old SJL/J (H-2) mice (20–25 g, Envigo, Indianapolis, IN). All protocols were approved through the University’s Institutional Animal Care and Use Committee, and all animals were housed in pathogen-free conditions. EAE induction and treatment schedule were based on methods previously described ([18]–[20]). […]. Additionally, on day 0 each mouse received a 100 μl intraperitoneal injection of pertussis toxin at 100 ng/ml. This administration of pertussis toxin was repeated on day 2. Beginning on day 7, disease severity was monitored daily through the use of a symptom scoring system as follows: 0, no clinical disease symptoms; 1, weakness or limpness of the tail; 2, weakness or partial paralysis of one or two hind limbs (paraparesis); 3, full paralysis of both hind limbs (paraplegia); 4, paraplegia plus weakness or paralysis of forelimbs; 5, moribund (euthanasia necessary). Mouse weight was also recorded daily throughout the study. In vivo treatment groups consisted of 6 mice per group. Treatments were administered in 100 μl SC injections formulated in 40 mg/ml mannitol. Injections were administered between the shoulder blades. Copaxone and K-PLP were administered at 4.5 mg/ml while 9-unit poly-lysine was administered at the molar equivalent to K-PLP injections, resulting in a concentration of 1.7 mg/ml. Treatment injections were performed on days 4, 7, and 10 following EAE induction. Mouse weights were recorded daily beginning on day 0 and clinical scores were recorded daily beginning on day 7. Statistical analysis was performed using two-way analysis of variance (ANOVA) on the clinical scores and weights, one-way ANOVA on the cumulative clinical scores, followed by Turkey comparison tests for all. Statistical significance for all analyses was set at p<0.05. All statistical analyses were performed using GraphPad Software (GraphPad Software Inc.).

Data set [2] in a line: Subcutaneous injection simulation (Scissor): aggregation and release. The settings on record: for formation of visible aggregates in HA: 1 ml of 20 mg/ml injected into 10 mg/ml HA (1.5–1.8 MDa), Scissor cartridge, visual observation. The data set is classed as physicochemical. Here is the method: The subcutaneous injection simulation was performed using the method previously described ([15]). 1 ml of 20 mg/ml K-PLP in 40 mg/ml mannitol solution was injected into Scissor cartridge containing 10 mg/ml 1.5–1.8 MDa hyaluronic acid (HA). Time points were collected over 3 days and concentration of K-PLP released into the chamber buffer was determined using a bicinchoninic acid assay (Micro BCA protein assay kit, Thermo Scientific, Waltham, MA) by constructing a calibration curve with K-PLP concentrations of 2, 5, 10, 20, 30, and 40 µg/ml. The concentration values were adjusted to account for K-PLP that was taken out during sampling and then converted to percentage of K-PLP released before plotted as a function of time.

The nature of data set [3]: Dynamic light scattering particle sizing. The class given is physicochemical. The method, then:
Raman and dynamic light scattering were performed with a Malvern Helix (Malvern Instruments, Malvern, UK). 20 μl of K-PLP at a concentration of 10 mg/ml in 150 mM citrate-phosphate buffer at pH 6 was loaded into a custom steel cuvette with quartz windows. Raman scattering from a 785 nm laser was collected in a backscattering geometry. Samples were measured in triplicate, each replicate consisted of 10 acquisitions of 10 second exposure each. The Zetasizer Helix Analyze software (Malvern Instruments) was used to buffer subtract, normalize to the phenylalanine peak (1003 cm-1), then baseline spectra for analysis. Dynamic light scattering autocorrelation functions were measured with a 632 nm laser with light collected in a 173° angle backscattering geometry. Autocorrelation functions were fit using the method of cumulants.

For data set [4] the following is noted: cited from earlier work; for formation of visible aggregates in the presence of HA (literature): in the presence of glycosaminoglycans such as HA. The source says:
GA consists of a broad population of peptides (average MW 5–9 kDa) comprising four amino acids (AKEY). Lysine is the predominant amino acid at ~34% of the molar mass, which imbues a strong cationic character (pI ~10). […] Approximately 30% of GA remained aggregated after 3 days according to in vitro subcutaneous (SC) injection simulation experiments. […] GEMSP consists of a mixture of fatty acid linked poly-lysine (PLL), antioxidants-PLL, free radical scavengers-PLL, and amino acids-PLL.

The next data set concerns footpads of mice. The data set can be described thus: In vivo migration imaging: retention at the footpad injection site. The settings on record: 10 μl into the footpad, cy7-labeled mixed with unlabeled compound, 20 mg/ml (PLP molar equivalent), dye 25 μM; 1-4 h; near-IR imaging; one mouse per compound.

Entries after “also recorded” stand apart in the source; their conditions may differ.

Description for footpads of mice: Herein, the labeled compounds will be referred to as cy7-GA, cy7-K-PLP, cy7-PEG and cy7-PLP.
Similar imaging method as previously described was used ([15]). Three female SJL/J mice (20-25 g, Envigo, Indianapolis, IN) were used for imaging, one each for K-PLP, PLP, and GA. Unlabeled K-PLP and unlabeled GA were mixed with cy7-K-PLP and cy7-GA, respectively, to a final concentration of 20 mg/ml with the amount of dye normalized to the equivalent of 25 μM of free cyanine 7 dye. Similarly, unlabeled PLP was mixed with cy7-PLP to a concentration that is molar equivalent to 20 mg/ml of K-PLP with the amount of dye normalized to the equivalent of 25 μM of free cyanine 7 dye. Each mouse was injected with 10 μl of their respective treatment at the center of the footpad every hour for 4 h in the following order: left forelimb at the 1-h time point, right forelimb at the 2-h time point, left hindlimb at the 3-h time point, and right hindlimb at the 4-h time point for K-PLP; right forelimb at the 1-h time point, left forelimb at the 2-h time point, right hindlimb at the 3-h time point, and left hindlimb at the 4-h time point for both GA and PLP. […]

Turning to “NH2-KKKKKKKKKKK-PEG-PEG-PEG-PEG-HSLGKWLGHPDKF-OH [K-PLP]”, the clinical score entry in data set [1] (100 μl SC in 40 mg/ml mannitol, 4.5 mg/ml, days 4, 7 and 10, scores to day 25, 6 mice per group) is reported as “lowest clinical score”. Besides, in data set [1] (100 μl SC, days 4, 7 and 10, 6 mice per group), the “percentage of disease-free mice” value is reported as “highest percentage of disease-free mice”. The weight decrease result in data set [1] (100 μl SC, days 4, 7 and 10, % weight change normalized to day 7, 6 mice per group) was “least weight decrease”. Besides, the “weight loss from day 13 to day 17 (peak disease)” value in data set [1] (compared to 9-unit poly-lysine (p<0.0001) and PLP (p<0.01), two-way ANOVA) is on record as “no significant weight loss”. Also, the “cumulative clinical scores, day 0 to day 25” value in data set [1] (one-way ANOVA, 6 mice per group) was “significant improvement over 9-unit poly-lysine, but not PLP”. The “formation of visible aggregates in HA” value in data set [2] was “visible aggregates were formed immediately”. Moreover, in data set [2] (Scissor release profile over 3 days, GA profile from ref 15), the “release rate compared to GA” value was “released at a similar rate as GA”. Moreover, the “remained in the cartridge at the end of the three-day experiment” value in data set [2] (Scissor, 20 mg/ml into 10 mg/ml HA, end of 3 days) is “approximately 20%”. Besides, the “plateau of release into the chamber after 2 days” value in data set [2] (Scissor, 1 ml of 20 mg/ml in 40 mg/ml mannitol into 10 mg/ml HA, after 2 days, Micro BCA assay) is “around 80%”. Besides, in data set [2] (Scissor, 1 ml of 20 mg/ml in 40 mg/ml mannitol into 10 mg/ml HA, first 3 h, Micro BCA assay), the “K-PLP released into the chamber over the first 3 h” value was “approximately 20%”. In addition, the “mean size (DLS)” value in data set [3] (10 mg/ml in 150 mM citrate-phosphate buffer pH 6, 632 nm laser, 173° backscattering, method of cumulants, triplicate) is “around 2 nm”. Further, the “polydispersity (DLS)” value in data set [3] (10 mg/ml in 150 mM citrate-phosphate buffer pH 6, over the temperature ramp) is given as “less than 0.3”.
As to “glatiramer acetate [GA, reference compound]”, in data set [1] (100 μl SC, days 4, 7 and 10, Copaxone 4.5 mg/ml, 9-unit poly-lysine 1.7 mg/ml, 6 mice per group), the “disease progression compared to the control (mannitol)” value was “any deviations from the control were not statistically significant; also recorded: did not significantly improve the clinical outcomes”. Also, the “formation of visible aggregates in the presence of HA (literature)” value in data set [4] is reported as “forms large, visible aggregates”. The “remained aggregated after 3 days” value in data set [4] (in vitro subcutaneous injection simulation, 3 days) is “Approximately 30%”. In addition, the “formation of visible aggregates in HA” value in data set [2] is “Formation of aggregates was observed immediately”. Besides, the “fluorescence intensity at the footpads over 4 h” value in the data set on footpads of mice was “did not significantly decrease over the course of the experiment”.
poly-lysine: in data set [4], the “formation of visible aggregates in the presence of HA (literature)” value is listed as “able to form visible aggregates”.

These data come from article PMC7848024, “Synthetic Cationic Autoantigen Mimics Glatiramer Acetate Persistence at the Site of Injection and Is Efficacious Against Experimental Autoimmune Encephalomyelitis” (Frontiers in Immunology, 2021).
